Structures can show the parent of a compound that is named as a salt.
Biological target: recombinant human HPK1 (Homo sapiens (Human), UniProt Q92918)
Test: HPK1 kinase assay (Promega ADP-Glo kinase assay)
Format: biochemical
Details: In vitro activity against HPK1, 5 ng HPK1, MBP substrate, ATP 25 μM, 30° C. 40 minutes
Method: HPK1 kinase activity was measured by Promega's ADP-Glo™ kinase assay. In this assay, 5 ng of recombinant human HPK1 (signalchem) is incubated with 5 μL of compounds (0.5% DMSO), 5 μL of MBP (0.5 μg/μl) and 5 μL of ATP (25 μM) in buffer (40 mM Tris, 7.5; 20 mM MgCl2; 0.1 mg/ml BSA; 50 μM DTT.). The assay was started by incubating the reaction mixture in a 96-well plate at 30° C. for 40 minutes. After the incubation, 25 μL ADP-Glo reagent was added and the reaction was incubated at room temperature for 40-min to stop the reaction and degrade residual ATP. The ADP product was then converted to ATP by adding 50 μL per well of detection reagent. Luminescence was detected after 30-min room temperature incubation with the Molecular device I3X plate reader. The IC50 values were calculated from a series of percent inhibition values determined at a range of inhibitor concentration using software routines as implemented in the GraphPad Prism 7 software and SigmaPlot13.0.

Sequence of recombinant human HPK1 (Q92918 whole entry): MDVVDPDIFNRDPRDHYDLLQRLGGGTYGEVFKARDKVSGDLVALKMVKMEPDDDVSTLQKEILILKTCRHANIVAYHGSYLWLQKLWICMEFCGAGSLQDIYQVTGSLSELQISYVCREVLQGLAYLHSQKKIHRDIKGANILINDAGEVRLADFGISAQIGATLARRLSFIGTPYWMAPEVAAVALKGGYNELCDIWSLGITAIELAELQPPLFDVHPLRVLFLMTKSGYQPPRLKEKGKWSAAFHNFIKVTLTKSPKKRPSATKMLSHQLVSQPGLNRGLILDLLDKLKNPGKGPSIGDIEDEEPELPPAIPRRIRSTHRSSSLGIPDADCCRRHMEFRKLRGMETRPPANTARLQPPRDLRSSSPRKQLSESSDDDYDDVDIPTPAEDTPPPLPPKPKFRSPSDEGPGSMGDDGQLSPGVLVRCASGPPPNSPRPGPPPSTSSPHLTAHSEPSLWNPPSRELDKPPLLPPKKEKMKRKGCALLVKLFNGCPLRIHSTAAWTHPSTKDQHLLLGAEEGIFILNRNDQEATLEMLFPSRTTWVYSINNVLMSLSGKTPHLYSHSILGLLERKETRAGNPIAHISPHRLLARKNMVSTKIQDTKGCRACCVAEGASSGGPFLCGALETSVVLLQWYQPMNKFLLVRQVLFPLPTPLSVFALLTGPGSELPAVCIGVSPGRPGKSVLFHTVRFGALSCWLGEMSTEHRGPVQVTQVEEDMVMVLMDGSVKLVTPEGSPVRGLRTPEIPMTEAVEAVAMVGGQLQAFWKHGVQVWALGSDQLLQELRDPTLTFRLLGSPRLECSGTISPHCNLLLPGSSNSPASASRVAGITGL

Structure (SMILES)	IC50 [nM]
CC(=O)Nc1cn2cc(-c3c(Cl)c(F)c(CN4CC(C)(O)C4)c4[nH]ncc34)ncc2n1 [Example 157, N-(6-(5-chloro-6-fluoro-7-((3-hydroxy-3-methylazetidin-1-yl)methyl)-1H-indazol-4-yl)imidazo[1,2-a]pyrazin-2-yl)acetamide]	501 to 1000
O=C(Nc1cn2cc(-c3c(Cl)c(F)c(OC4CNC4)c4[nH]ncc34)ncc2n1)[C@@H]1C[C@@H]1F [Example 143, (1S,2S)-N-(6-(7-(azetidin-3-yloxy)-5-chloro-6-fluoro-1H-indazol-4-yl)imidazo[1,2-a]pyrazin-2-yl)-2-fluorocyclopropane-1-carboxamide formate]	501 to 1000
CC(C)Nc1c(F)c(Cl)c(-c2cn3cc(NC(=O)c4ccccn4)nc3cn2)c2cn[nH]c12 [Example 58, N-(6-(5-chloro-6-fluoro-7-(isopropylamino)-1H-indazol-4-yl)imidazo[1,2-a]pyrazin-2-yl)picolinamide]	101 to 500
COCC(=O)Nc1cn2cc(-c3c(Cl)c(F)c(NC(C)C)c4[nH]ncc34)ncc2n1 [Example 109, N-(6-(5-chloro-6-fluoro-7-(isopropylamino)-1H-indazol-4-yl)imidazo[1,2-a]pyrazin-2-yl)-2-methoxyacetamide]	< 100
N#Cc1c(F)cc2[nH]ncc2c1-c1cn2cc(NC(=O)[C@@H]3C[C@@H]3F)nc2cn1 [Example 72, (1S,2S)-N-(6-(5-cyano-6-fluoro-1H-indazol-4-yl)imidazo[1,2-a]pyrazin-2-yl)-2-fluorocyclopropane-1-carboxamide]	501 to 1000
CC(C)Nc1c(F)c(Cl)c(-c2cn3cc(NC(=O)CN4CCOCC4)nc3cn2)c2cn[nH]c12 [Example 90, N-(6-(5-chloro-6-fluoro-7-(isopropylamino)-1H-indazol-4-yl)imidazo[1,2-a]pyrazin-2-yl)-2-morpholinoacetamide]	< 100
CC(N)c1c(F)c(C(F)(F)F)c(-c2cn3cc(NC(=O)[C@@H]4C[C@@H]4F)nc3cn2)c2cn[nH]c12 (stereo partly drawn) [Example 45, (1S,2S)-N-(6-(7-(1-aminoethyl)-6-fluoro-5-(trifluoromethyl)-1H-indazol-4-yl)imidazo[1,2-a]pyrazin-2-yl)-2-fluorocyclopropane-1-carboxamide]	501 to 1000
CC(=O)Nc1cn2cc(-c3c(Cl)c(F)c(C(C)N4CC(O)C4)c4[nH]ncc34)ncc2n1 (stereo not shown) [Example 161, N-(6-(5-chloro-6-fluoro-7-(1-(3-hydroxyazetidin-1-yl)ethyl)-1H-indazol-4-yl)imidazo[1,2-a]pyrazin-2-yl)acetamide]	501 to 1000
CC(CO)c1c(F)c(C(F)(F)F)c(-c2cn3cc(NC(=O)[C@@H]4C[C@@H]4F)nc3cn2)c2cn[nH]c12 (stereo partly drawn) [Example 85, (1S,2S)-2-fluoro-N-(6-(6-fluoro-7-(1-hydroxypropan-2-yl)-5-(trifluoromethyl)-1H-indazol-4-yl)imidazo[1,2-a]pyrazin-2-yl)cyclopropane-1-carboxamide]	< 100
CC(=O)NC(c1c(F)c(C(F)(F)F)c(-c2cn3cc(NC(=O)[C@@H]4C[C@@H]4F)nc3cn2)c2cn[nH]c12)C1CC1 (stereo partly drawn) [Example 56, (1S,2S)-N-(6-(7-(acetamido(cyclopropyl)methyl)-6-fluoro-5-(trifluoromethyl)-1H-indazol-4-yl)imidazo[1,2-a]pyrazin-2-yl)-2-fluorocyclopropane-1-carboxamide formate]	< 100
CC(C)N(c1c(F)c(Cl)c(-c2cn3cc(NC(=O)[C@@H]4C[C@@H]4F)nc3cn2)c2cn[nH]c12)C1OC(C(=O)O)C(O)C(O)C1O (stereo partly drawn) [Example 14, 6-((5-chloro-6-fluoro-4-(2-((1S,2S)-2-fluorocyclopropane-1-carboxamido)imidazo[1,2-a]pyrazin-6-yl)-1H-indazol-7-yl)(isopropyl)amino)-3,4,5-trihydroxytetrahydro-2H-pyran-2-carboxylic acid]	< 100
COc1c(F)c(NC(C)C)c2[nH]ncc2c1-c1cn2cc(NC(C)=O)nc2cn1 [Example 158, N-(6-(6-fluoro-7-(isopropylamino)-5-methoxy-1H-indazol-4-yl)imidazo[1,2-a]pyrazin-2-yl)acetamide]	< 100
NC(c1c(F)c(C(F)F)c(-c2cn3cc(NC(=O)[C@@H]4C[C@@H]4F)nc3cn2)c2cn[nH]c12)C1CC1 (stereo partly drawn) [Example 41, (1S,2S)-N-(6-(7-(amino(cyclopropyl)methyl)-5-(difluoromethyl)-6-fluoro-1H-indazol-4-yl)imidazo[1,2-a]pyrazin-2-yl)-2-fluorocyclopropane-1-carboxamide]	< 100
Cc1c(F)c(NC(C)C)c2[nH]ncc2c1-c1cn2cc(NC(=O)[C@@H]3C[C@H]3F)nc2cn1 [Example 34, (1S,2R)-2-fluoro-N-(6-(6-fluoro-7-(isopropylamino)-5-methyl-1H-indazol-4-yl)imidazo[1,2-a]pyrazin-2-yl)cyclopropane-1-carboxamide]	< 100
CC(C)Nc1c(F)c(Cl)c(-c2cn3cc(NC(=O)N4CCNCC4)nc3cn2)c2cn[nH]c12 [Example 120, N-(6-(5-chloro-6-fluoro-7-(isopropylamino)-1H-indazol-4-yl)imidazo[1,2-a]pyrazin-2-yl)piperazine-1-carboxamide]	< 100
CC(C)Nc1c(F)c(Cl)c(-c2cn3cc(NC(=O)[C@H](C)N)nc3cn2)c2cn[nH]c12 [Example 79, (S)-2-amino-N-(6-(5-chloro-6-fluoro-7-(isopropylamino)-1H-indazol-4-yl)imidazo[1,2-a]pyrazin-2-yl)propanamide]	< 100
CC(C)Nc1c(F)c(Cl)c(-c2cn3cc(NC(=O)Cc4cccnc4)nc3cn2)c2cn[nH]c12 [Example 89, N-(6-(5-chloro-6-fluoro-7-(isopropylamino)-1H-indazol-4-yl)imidazo[1,2-a]pyrazin-2-yl)-2-(pyridin-3-yl)acetamide]	< 100

Further lines, results first:

IC50 [nM]	Structure (SMILES)
< 100	Cc1c(F)c(C(N)C2CC2)c2[nH]ncc2c1-c1cn2cc(NC(=O)[C@@H]3C[C@@H]3F)nc2cn1 (stereo partly drawn) [Example 23, (1S,2S)-N-(6-(7-(amino(cyclopropyl)methyl)-6-fluoro-5-methyl-1H-indazol-4-yl)imidazo[1,2-a]pyrazin-2-yl)-2-fluorocyclopropane-1-carboxamide]
< 100	CC(C)Nc1c(F)c(C(F)F)c(-c2cn3cc(NC(=O)[C@@H]4C[C@@H]4C#N)nc3cn2)c2cn[nH]c12 [Example 154, (1R,2S)-2-cyano-N-(6-(5-(difluoromethyl)-6-fluoro-7-(isopropylamino)-1H-indazol-4-yl)imidazo[1,2-a]pyrazin-2-yl)cyclopropane-1-carboxamide]
< 100	Cc1c(F)c(NC(C)C)c2[nH]ncc2c1-c1cn2cc(NC(=O)Cc3cccnc3)nc2cn1 [Example 93, N-(6-(6-fluoro-7-(isopropylamino)-5-methyl-1H-indazol-4-yl)imidazo[1,2-a]pyrazin-2-yl)-2-(pyridin-3-yl)acetamide]
< 100	O=C(Nc1cn2cc(-c3c(C(F)(F)F)c(F)c(C(O)C4CC4)c4[nH]ncc34)ncc2n1)[C@@H]1C[C@@H]1F (stereo partly drawn) [Example 36, (1S,2S)-N-(6-(7-(cyclopropyl(hydroxy)methyl)-6-fluoro-5-(trifluoromethyl)-1H-indazol-4-yl)imidazo[1,2-a]pyrazin-2-yl)-2-fluorocyclopropane-1-carboxamide]
< 100	Cc1c(F)c(C(C2CC2)N2C(=O)c3ccccc3C2=O)c2[nH]ncc2c1-c1cn2cc(NC(=O)[C@@H]3C[C@@H]3F)nc2cn1 (stereo partly drawn) [Example 21, (1S,2S)-N-(6-(7-(cyclopropyl(1,3-dioxoisoindolin-2-yl)methyl)-6-fluoro-5-methyl-1H-indazol-4-yl)imidazo[1,2-a]pyrazin-2-yl)-2-fluorocyclopropane-1-carboxamid]
< 100	CC(=O)Nc1cn2cc(-c3c(Cl)c(F)c(C(O)C4CC4)c4[nH]ncc34)ncc2n1 (stereo not shown) [Example 152, N-(6-(5-chloro-7-(cyclopropyl(hydroxy)methyl)-6-fluoro-1H-indazol-4-yl)imidazo[1,2-a]pyrazin-2-yl)acetamide]
< 100	COC(=O)[C@H]1C[C@H]1C(=O)Nc1cn2cc(-c3c(Cl)c(F)c(NC(C)C)c4[nH]ncc34)ncc2n1 [Example 32, methyl (1S,2R)-2-((6-(5-chloro-6-fluoro-7-(isopropylamino)-1H-indazol-4-yl)imidazo[1,2-a]pyrazin-2-yl)carbamoyl)cyclopropane-1-carboxylate]
< 100	CC(C)Nc1c(F)c(Cl)c(-c2cn3cc(NC(=O)C(F)F)nc3cn2)c2cn[nH]c12 [Example 122, N-(6-(5-chloro-6-fluoro-7-(isopropylamino)-1H-indazol-4-yl)imidazo[1,2-a]pyrazin-2-yl)-2,2-difluoroacetamide]
< 100	CC(C)Nc1c(F)c(Cl)c(-c2cn3cc(NC(=O)[C@@H]4C[C@@H]4C(F)F)nc3cn2)c2cn[nH]c12 [Example 88, (1R,2S)-N-(6-(5-chloro-6-fluoro-7-(isopropylamino)-1H-indazol-4-yl)imidazo[1,2-a]pyrazin-2-yl)-2-(difluoromethyl)cyclopropane-1-carboxamide]
< 100	CC(C)Nc1c(F)c(Cl)c(-c2cn3cc(NC(=O)C4CCNC4)nc3cn2)c2cn[nH]c12 (stereo not shown) [Example 74, N-(6-(5-chloro-6-fluoro-7-(isopropylamino)-1H-indazol-4-yl)imidazo[1,2-a]pyrazin-2-yl)pyrrolidine-3-carboxamide]
< 100	CC(=O)Nc1cn2cc(-c3c(C(F)F)c(F)c(NC(C)C)c4[nH]ncc34)ncc2n1 [Example 153, N-(6-(5-(difluoromethyl)-6-fluoro-7-(isopropylamino)-1H-indazol-4-yl)imidazo[1,2-a]pyrazin-2-yl)acetamide]

From patent US20250197406A1, “INDAZOLES AS HEMATOPOIETIC PROGENITOR KINASE 1 (HPK1) INHIBITORS AND METHODS FOR USING SAME” (1ST Biotherapeutics, Inc., priority 2022, published 2025)
